{"source": "the METLIN SMRT retention time set (Domingo-Almenara et al. 2019)"}
{"assay": "gradient 5% acetonitrile 3 min, to 50% in 2 min, to 85% in 15 min, held 3 min, 100 µL/min", "conditions": "column: Zorbax Extend-C18 2.1 x 50 mm; eluents: water / acetonitrile, 0.1% formic acid", "how_it_was_run": "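Retention times come from adduct peaks that were picked computationally and then checked by hand. The standards, pure and pooled in mixtures of ~100 molecules, were run on a Zorbax Extend-C18 column (2.1 × 50 mm, 1.8 μm) at 100 μL/min with water and acetonitrile, each with 0.1% formic acid. Detection was by quadrupole time-of-flight mass spectrometry in positive and negative ionization mode, with a dead volume of 40 μL and a dwell volume of 900 μL.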", "units": {"RP-LC retention time": "s"}}
{"smiles": "O=C(NCc1cc(F)ccc1F)C1CCN(c2cncnc2N2CCCCC2)CC1", "RP-LC retention time": 709}
{"smiles": "CCc1nnc(C2CCN(S(=O)(=O)c3cccnc3)CC2)s1", "RP-LC retention time": 652}
{"smiles": "CCOc1ccc(-c2ccc(=O)n(Cc3nc(-c4ccc(F)cc4)no3)n2)cc1", "RP-LC retention time": 1090}
{"smiles": "COc1ccc(C)cc1NC(=O)Cn1nc2c(Oc3ccccc3C)nccn2c1=O", "RP-LC retention time": 896}
{"smiles": "COCCN1C(=O)c2ccccc2C(C(=O)Nc2ccc(OC)c(OC)c2)C12CCCC2", "note": "(stereo not given)", "RP-LC retention time": 776}
{"smiles": "Cc1c(S(=O)(=O)CCNC(=O)Nc2ccc3c(c2)OCO3)c2ccccc2n1C", "RP-LC retention time": 729}
{"smiles": "Cn1c(=O)sc2cc(S(=O)(=O)N3CCC(C(=O)Nc4cccc(C(F)(F)F)c4)CC3)ccc21", "RP-LC retention time": 970}
{"smiles": "CCCNS(=O)(=O)c1ccc(-c2c(C)noc2C)cc1", "RP-LC retention time": 835}
{"smiles": "COCCC(=O)Nc1c(-c2ccccc2)nc2sc(N3CCCCC3)nn12", "RP-LC retention time": 751}
{"smiles": "CN(C)c1nc2ncn3c(=O)n(CC(=O)NC4CCCC4)nc3c2s1", "RP-LC retention time": 647}
{"smiles": "O=C(c1ccncn1)N1C[C@@H](COCC2CC2)[C@H](c2ccccn2)C1", "RP-LC retention time": 604}
{"smiles": "Cc1cc(C)cc(C(=O)NCc2nn(C)c3ccccc23)c1", "RP-LC retention time": 854}
{"smiles": "Cc1noc(C)c1CN1CCN(C(=O)Cc2ccccc2Cl)CC1", "RP-LC retention time": 563}
{"smiles": "Cc1cc(Oc2ncnc3c2cnn3-c2ccc(Cl)cc2)ccc1[N+](=O)[O-]", "RP-LC retention time": 1270}
{"smiles": "Cc1ccc(-c2csc(-n3nc(C)c(CC(=O)N4CCCC4)c3C)n2)cc1", "RP-LC retention time": 1090}
{"smiles": "Cc1nc(-c2csc(S(=O)(=O)N3CCC(C(=O)N4CCCC4)CC3)c2)no1", "RP-LC retention time": 760}
{"smiles": "CCCc1cc(N2CCN(C(=O)c3ccc4c(c3)OCO4)CC2)nc2nnc(C)n12", "RP-LC retention time": 624}
{"smiles": "CCc1nc2ccc(-c3noc(-c4ccsc4)n3)cc2n1CC", "RP-LC retention time": 698}
{"smiles": "CCC(C(=O)NCCN1CCCC1)n1c2ccccc2c2cnn(C)c(=O)c21", "note": "(stereo not given)", "RP-LC retention time": 632}
{"smiles": "CN(Cc1ccccc1)C(=O)CN1C(=O)C(C(=O)N2CCCCCC2)Sc2ccccc21", "note": "(stereo not given)", "RP-LC retention time": 945}
{"smiles": "O=C(CS(=O)(=O)Cc1ccccc1)Nc1nc(-c2ccccc2)cs1", "RP-LC retention time": 956}
{"smiles": "Cc1cc2[nH]c(C(=O)Nc3ccc(F)cc3Br)c(CN(C)C)c2s1", "RP-LC retention time": 678}
{"smiles": "O=C(CC1CCCC1)N1CCC(N(Cc2cccnc2)C2CCOCC2)CC1", "RP-LC retention time": 604}
{"smiles": "O=C(NCc1ccc(N2CCOCC2)cc1)c1cn2nc(Cl)ccc2n1", "RP-LC retention time": 656}
{"smiles": "CCc1ccccc1NS(=O)(=O)c1cn(CC(C)C)c2ncccc12", "RP-LC retention time": 1050}
{"smiles": "CCn1c(=O)cc(OCC(=O)NCCN(C)Cc2ccccc2)c2ccccc21", "RP-LC retention time": 617}
{"smiles": "CCOc1ccc(-c2csc3c(=O)n(Cc4ccc(F)cc4)cnc23)cc1OCC", "RP-LC retention time": 1100}
{"smiles": "Cc1ccc(-c2cn3c(CC(=O)Nc4ccc(C)c(F)c4)csc3n2)cc1C", "RP-LC retention time": 933}
{"smiles": "CCOC(=O)c1cc(S(=O)(=O)N2CC3CC(C2)c2cccc(=O)n2C3)cn1C", "note": "(stereo not given)", "RP-LC retention time": 704}
{"smiles": "Cc1cccc(-n2c(N3CCCC(C(=O)Nc4ccc(Cl)cc4)C3)nc3ccsc3c2=O)c1", "note": "(stereo not given)", "RP-LC retention time": 1080}
{"smiles": "CCOc1ccc(NC(=O)C2CCCN(c3nc4ccccc4nc3C(F)(F)F)C2)cc1", "note": "(stereo not given)", "RP-LC retention time": 1210}
{"smiles": "Cc1cc(C)c(NC(=O)Cn2cnc3c(sc4nc(-c5ccccc5)ccc43)c2=O)c(C)c1", "RP-LC retention time": 1050}
{"smiles": "Cc1ccc(C(=O)N2C(C(=O)NCc3ccco3)COC23CCN(C(=O)C(C)(C)C)CC3)cc1", "note": "(stereo not given)", "RP-LC retention time": 756}
{"smiles": "Cc1cccc(C2(O)C(=O)N(Cc3nc(-c4ccccc4)oc3C)c3ccccc32)c1", "note": "(stereo not given)", "RP-LC retention time": 1120}
{"smiles": "Cc1ccc(Cn2nc3c(S(=O)(=O)N4CCN(c5ccc(F)cc5)CC4)cccn3c2=O)c(C)c1", "RP-LC retention time": 1080}
{"smiles": "COc1cccc(S(=O)(=O)N2CC(F)(F)C[C@H]2c2nnc(C)o2)c1", "RP-LC retention time": 785}
{"smiles": "Cc1sc2ccn(C)c(=O)c2c1C(=O)NCc1ccc(OC(C)C)cc1", "RP-LC retention time": 833}
{"smiles": "O=[N+]([O-])c1ccc(-c2nc(NCCCO)c3ccccc3n2)cc1", "RP-LC retention time": 595}
{"smiles": "Cc1nnc(N2CCCC(C(=O)NCc3cccc(Cl)c3)C2)c2nn(-c3ccccc3)c(C)c12", "note": "(stereo not given)", "RP-LC retention time": 674}
{"smiles": "O=S(=O)(Nc1ccc(F)cc1F)c1ccc2c(c1)-c1oncc1CO2", "RP-LC retention time": 873}
{"smiles": "Cc1cccc(NS(=O)(=O)c2ccc3c(c2)C(=O)N(C)c2ncccc2O3)c1", "RP-LC retention time": 1050}
{"smiles": "COc1ccc(CNC(=O)CSc2nccc(N3CCN(c4cc(C)ccc4C)CC3)n2)cc1", "RP-LC retention time": 861}
{"smiles": "CCCn1cc(CCNC(=O)Nc2cccc(Cl)c2C)c2cccnc21", "RP-LC retention time": 889}
{"smiles": "CC(=O)N1CCc2cc(S(=O)(=O)C(C)CC(=O)NC3CCN(Cc4ccccc4)CC3)ccc21", "note": "(stereo not given)", "RP-LC retention time": 551}
{"smiles": "CCC1CCCCN1C(=O)c1cnc2nc(C)ccc2c1Nc1ccc(C)cc1", "note": "(stereo not given)", "RP-LC retention time": 674}
{"smiles": "COc1ccc(NS(=O)(=O)c2cn(C(C)C)c3ncccc23)cc1", "RP-LC retention time": 840}
{"smiles": "CCOc1ccc(N2CC(c3nc(-c4cccc(C)c4)no3)CC2=O)cc1", "note": "(stereo not given)", "RP-LC retention time": 1050}
{"smiles": "O=C(NCc1cccs1)C1CCN(Cc2cc3ccccc3n2Cc2ccccc2Cl)CC1", "RP-LC retention time": 821}
{"smiles": "O=C(c1cc(F)ccc1Cl)N1CCc2nc(-c3ccc(F)cc3)ncc2C1", "RP-LC retention time": 1020}
{"smiles": "COc1ccc(CSc2nccc3c2ccn3CC(=O)N2CCN(c3ccc(F)cc3)CC2)cc1", "RP-LC retention time": 777}
{"smiles": "O=C(Cc1ccc(F)cc1)N1CCN(C(=O)c2nnn3c2COC(c2ccccc2)C3)CC1", "note": "(stereo not given)", "RP-LC retention time": 864}
{"smiles": "O=C(NCc1ccccn1)C(=O)Nc1ccc2c(c1)OCO2", "RP-LC retention time": 579}
{"smiles": "CC(=O)Nc1ccc(C2(C(=O)NCc3cccc(Cl)c3)CCC2)cc1", "RP-LC retention time": 785}
{"smiles": "Cc1cccc(C)c1NC(=O)Cn1nc2n(c1=O)CCCCC2", "RP-LC retention time": 684}
{"smiles": "Cc1ccc(NC(=O)CSc2ccc(N3CCCC(C(=O)NC4CC4)C3)nn2)cc1F", "note": "(stereo not given)", "RP-LC retention time": 664}
{"smiles": "Cc1onc(-c2ccccc2Cl)c1C(=O)N1CC2CC1C(=O)O2", "note": "(stereo not given)", "RP-LC retention time": 693}
{"smiles": "Cc1nnc(NC(=O)CSc2nnc(CCc3nc4ccccc4[nH]3)o2)s1", "RP-LC retention time": 542}
{"smiles": "COc1cccc(CNC(=O)N2CCc3nc(-c4ccccc4)sc3C2)c1", "RP-LC retention time": 891}
{"smiles": "CCOC(=O)CCc1c(C)nn(-c2cc(N3CCCC3)ncn2)c1C", "RP-LC retention time": 868}
{"smiles": "CN1C(=O)C2(CCN(C(=O)NC3CCCCC3)CC2)c2ccccc21", "RP-LC retention time": 807}
{"smiles": "CN(Cc1ccccc1)C(=O)c1cc2n(n1)CC(C)(C(=O)NC1CCCCCC1)N(C)C2=O", "note": "(stereo not given)", "RP-LC retention time": 866}
{"smiles": "O=C(NCCc1cccc(F)c1)C1CC(=O)N(c2n[nH]c3cccc(F)c23)C1", "note": "(stereo not given)", "RP-LC retention time": 720}
{"smiles": "Cc1cc(C)cc(Nc2c(-c3ccc(N4CCOCC4)cc3)nc3cnccn23)c1", "RP-LC retention time": 895}
{"smiles": "CCOc1ccc(NC(=O)c2oc3ccc(CC)cc3c2C)c2cccnc12", "RP-LC retention time": 837}
{"smiles": "Cc1noc(C)c1-c1ccc(S(=O)(=O)N2CCc3ccccc3C2)cc1", "RP-LC retention time": 1050}
